Data from patent US20130085304A1, “PROCESSES FOR PREPARATION OF POLYMORPHIC FORMS OF LACOSAMIDE” (priority 2009, published 2013).

Experiments:
[1] = Effect of time on stability of polymorphic form; format: physicochemical
Experimental: Polymorphic Form A of lacosamide was kept at 0° C. to 5° C. for 3 months.
Polymorphic Form B of lacosamide was kept at 0° C. to 5° C. for 7 months.

[2] = Drying of Example 3 wet mass at rising temperatures, polymorph checked by XRD; format: physicochemical; conditions: for Product characterized (based on XRD thereof) as: 6 hours
Experimental: Lacosamide (20 g) was added to ethyl acetate (120 ml) at ambient temperature and heated at 75° C. to 80° C. This was cooled to ambient temperature in 1 hour and then filtered. […] The wet mass was dried at the following temperatures each for the specified time and analyzed.

[3] = Solubility of polymorphic Form A and Form B in de-ionized water
Experimental: Lacosamide polymorphic Forms A and B were tested for solubility studies by dissolving the Form A or Form B in de-ionized water.

Row | Compound | Polymorphic form on reanalysis after storage ([1]; kept at 0° C. to 5° C. for 3 months) | Product characterized (based on XRD thereof) as ([2]; Example 3 wet mass dried at 35-40 °C) | Product characterized (based on XRD thereof) as ([2]; Example 3 wet mass dried at 40-45 °C) | Product characterized (based on XRD thereof) as ([2]; Example 3 wet mass dried at 45-50 °C) | Product characterized (based on XRD thereof) as ([2]; Example 3 wet mass dried at 50-55 °C) | Product characterized (based on XRD thereof) as ([2]; Example 3 wet mass dried at 55-60 °C) | Product characterized (based on XRD thereof) as ([2]; Example 3 wet mass dried at 60-65 °C) | Change in polymorph pattern on heating ([2]; heated for 36 hours in the temperature range of 35° C. to 65° C.) | Solubility status in de-ionized water (1 in 45 parts) [3] | Polymorphic form on reanalysis after storage ([1]; kept at 0° C. to 5° C. for 7 months)
1 | COC[C@@H](NC(C)=O)C(=O)NCc1ccccc1 [Form A, (R)-2-acetamido-N-benzyl-3-methoxypropionamide] | characterized as Form A | Crystalline Form A | Crystalline Form A | Crystalline Form A | Crystalline Form A | Crystalline Form A | Crystalline Form A | no change in polymorph pattern | Sparingly soluble | 
2 | COC[C@@H](NC(C)=O)C(=O)NCc1ccccc1 [Form B, (R)-2-acetamido-N-benzyl-3-methoxypropionamide] |  |  |  |  |  |  |  |  |  | characterized as Form B
